The source of these data is patent US5235061A, “Fungicidal (1H-1,2,4-triazolyl)disilaalkanes” (priority 1991, dated 1993).

What all share (assay): In vitro percent disease control (radii of spore growth on agar)
Common to all, as to assay type: cell-based

For data set [1], the system named is Alternaria mali. The following applies: Alternaria mali, read-out: % controlled, Al. Here is the method:
(§1) The compounds of this invention were dissolved respectively in acetone in an amount equal to 10% of the final volume and then in purified water at the concentration of 100 ppm and 50 ppm.
(§2) Each of the solution was mixed with potato-sucrose-agar medium in a 6" petri dish and one of the fungi was spotted at the center of the dish. The dish was incubated in growth room for several days. The percent disease control was derived from the radii of spore growth. The screening tests in vitro condition are well-known to those skilled in the art.
(§3) The following fungi were used for the screening.

In data set [2] the test system is Rhizopus sp. The following applies: Rhizopus, read-out: % controlled, Rhi. sp. The procedure:
as §1, §2, §3

Data set [3] deals with Phytophthora capsisi. The note with it: Phytophthora, read-out: % controlled, Phy ca. The procedure: as §1, §2, §3
2) Phy. ca.; Phytophthora capsisi

Data set [4] deals with Physalospora baccae. The note with it: read-out: % controlled, Phy ba. The procedure:
as §1, §2, §3
3) Phy. ba.; Physalospora baccae

Data set [5] has as its system Botryosphaeria dothidea Macrophoma sp. The note with it: Botryosphaeria dothidea, read-out: % controlled, Bo.do (Ma.). The procedure:
as §1, §2, §3
4) Bo.do(Ma); Botryosphaeria dothidea Macrophoma sp.

Data set [6] concerns Glomerella cingulata. The following applies: Colletotrichum gloeosporioides, read-out: % controlled, Glo. Here is the method: as §1, §2, §3
5) Glo.; Glomerella cingulata

Data set [7] deals with Pyricalaria oryzae. The following applies: for inhibition of growth at 50 ppm: read-out: % controlled, Py. or., 50 ppm; for inhibition of growth at 100 ppm: read-out: % controlled, Py. or., 100 ppm. The procedure: as §1, §2, §3
6) Py.or.; Pyricalaria oryzae

For data set [8], the system named is Rhizoctonia solani. The following applies: Rhizoctonia solani, read-out: % controlled, Rhy. so. Here is the method:
as §1, §2, §3
7) Rhi.so.; Rhizoctonia solani

For data set [9], the system named is Fusarium moniliforme. Here is the method: as §1, §2, §3
8) Fu.mo.; Fusarium moniliforme

The test system of data set [10] is Botry tris cinerea. The following applies: read-out: % controlled, Bo ci. Here is the method: as §1, §2, §3
10) Bo.ci.; Botry tris cinerea

With `C[Si](C)(C)C[Si](Cn1cncn1)(c1ccc(Cl)cc1)c1ccc(Cl)cc1` [2,2-bis(4-chlorophenyl)-4,4-dimethyl-2,4-disila-1-(1H-1,2,4-triazol-1-yl)pentane], the inhibition of growth at 50 ppm stood at 75% in data set [1]; 51% in data set [2]; 28% in data set [3]; 90% in [4]; 70% in data set [5]; 83% in [6]. Besides, the inhibition of growth at 50 ppm turned out to be 90% in data set [7], 56% in data set [8] and 67% in [10]. Moreover, the inhibition of growth at 100 ppm in data set [1] was 79%; in data set [2] it was 54%; in data set [3], 34%; in data set [4], 100%; in data set [5], 72%; in data set [6] it was 89%. The inhibition of growth at 100 ppm in [7] was 95%; in data set [8], 66%; in [10], 85%. The “% controlled, Fu. mo.” value is 46% in data set [9] (50 ppm) and 65% in data set [9] (100 ppm).
On to `C[Si](C)(C[Si](Cn1cncn1)(c1ccc(Cl)cc1)c1ccc(Cl)cc1)c1ccc(F)cc1` [2,2-bis(4-chlorophenyl)-4-(4-fluorophenyl)-4-methyl-2,4-disila-1-(1H-1,2,4-triazol-1-yl)pentane], for which the inhibition of growth at 50 ppm is 51% in data set [1]; 26% in data set [2]; 6% in data set [3]; 44% in data set [4]; 54% in data set [5]; 0% in data set [6]. The inhibition of growth at 50 ppm was determined as 57% in data set [7], 43% in [8] and 37% in data set [10]. Besides, the inhibition of growth at 100 ppm in [1] was determined as 58%; in data set [2], 32%; in data set [3], 9%; in data set [4], 48%; in data set [5], 61%; in data set [6], 0%. Moreover, the inhibition of growth at 100 ppm in data set [7] was 57%; in [8], 77%; in [10], 53%. Further, the “% controlled, Fu. mo.” value in data set [9] (50 ppm) was determined as 41%; in data set [9] (100 ppm), 55%.
With `CCOc1ccc([Si](Cn2cncn2)(C[Si](C)(C)c2ccc(F)cc2)c2ccc(OCC)cc2)cc1` [2,2-bis(4-ethoxyphenyl)-4-(4-fluorophenyl)-4-methyl-2,4-disila-1-(1H-1,2,4-triazol-1-yl)pentane], the inhibition of growth at 50 ppm came to 63% in data set [1]; 19% in data set [2]; 50% in data set [3]; 53% in data set [4]; 74% in [5]; 71% in data set [6]. Besides, the inhibition of growth at 50 ppm was determined as 100% in [7], 78% in data set [8] and 69% in [10]. The inhibition of growth at 100 ppm was 72% in [1]; 43% in data set [2]; 60% in data set [3]; 74% in data set [4]; 78% in data set [5]; 77% in data set [6]. Besides, the results for the inhibition of growth at 100 ppm in data set [7], in data set [8] and in [10] were 100%, 78% and 66%, respectively. Besides, the “% controlled, Fu. mo.” value in data set [9] (50 ppm) was 58%; in data set [9] (100 ppm), 63%.
As to `C[Si](C)(C)C[Si](C)(Cn1cncn1)c1ccc(F)cc1` (stereo not drawn) [2-(4-fluorophenyl)-2,4,4-trimethyl-2,4-disila-1-(1H-1,2,4-triazol-1-yl)pentane], the inhibition of growth at 50 ppm came to 78% in [1]; 49% in data set [2]; 20% in [3]; 56% in data set [4]; 69% in data set [5]; 100% in data set [7]. Besides, the inhibition of growth at 50 ppm in data set [8] was found to be 90%; in data set [10], 81%. In addition, the inhibition of growth at 100 ppm worked out at 81% in data set [1]; 56% in data set [2]; 31% in [3]; 72% in data set [4]; 74% in data set [5]; 100% in [7]. The values for the inhibition of growth at 100 ppm in data set [8] and in [10] were 90% and 83%, respectively. The “% controlled, Fu. mo.” value is 62% in data set [9] (50 ppm) and 66% in [9] (100 ppm).
For the compound `C[Si](C)(C[Si](C)(Cn1cncn1)c1ccc(F)cc1)c1ccc(-c2ccccc2)cc1` (stereo not drawn) [2-(4-fluorophenyl)-4-(4-phenylphenyl)2,4-dimethyl-2,4-disila-1-(1H-1,2,4-triazol-1-yl)pentane], the inhibition of growth at 50 ppm came out at 75% in data set [1]; 50% in [2]; 69% in data set [4]; 79% in data set [5]; 87% in [6]; 100% in [7]. In addition, the figures for the inhibition of growth at 50 ppm in [8] and in data set [10] were 96% and 90%, respectively. Besides, the inhibition of growth at 100 ppm in data set [1] is 79%; in [2], 50%; in data set [4] it was 69%; in [5] it was 79%; in [6], 87%; in data set [7] it was 100%. Moreover, the figures for the inhibition of growth at 100 ppm in data set [8] and in [10] were 96% and 90%, respectively. Further, the “% controlled, Fu. mo.” value in data set [9] (50 ppm) and in data set [9] (100 ppm) was 46% each time.
Consider `C=CC[Si](Cn1cncn1)(C[Si](CC=C)(c1ccccc1)c1ccc(-c2ccccc2)cc1)c1ccc(F)cc1` (stereo not drawn) [4-(4-fluorophenyl)-6-phenyl-6-(4-phenylphenyl)-4,6-disila-4-(1H-1,2,4-triazol-1-ylmethyl)-1,8-nonadiene], for which the inhibition of growth at 50 ppm is 72% in data set [1]; 50% in data set [2]; 70% in data set [3]; 65% in [4]; 80% in [6]; 100% in data set [7]. For the same compound, the inhibition of growth at 50 ppm in data set [8] stood at 60%; in data set [10], 90%. Besides, the inhibition of growth at 100 ppm is 78% in data set [1]; 58% in [2]; 72% in data set [3]; 69% in data set [4]; 86% in [6]; 100% in data set [7]. Moreover, the inhibition of growth at 100 ppm in data set [8] and in data set [10] was 90% in each case. For the same compound, the “% controlled, Fu. mo.” value in data set [9] (50 ppm) is on record as 61%; in [9] (100 ppm) it was 65%.
Take `C=CC[Si](CC=C)(Cn1cncn1)C[Si](CC=C)(c1ccc(F)cc1)c1ccc(-c2ccccc2)cc1` (stereo not drawn) [6-(4-fluorophenyl)-6-(4-phenylphenyl)-4-(2-propenyl)-4,6-disila-4-(1H-1,2,4-triazol-1-ylmethyl)-1,8-nonadiene]: the inhibition of growth at 50 ppm was found to be 100% in data set [1]; 100% in data set [2]; 40% in [3]; 100% in [4]; 100% in data set [5]; 100% in data set [6]. For the same compound, the inhibition of growth at 50 ppm in data set [7], in [8] and in [10] was 100% throughout. In addition, the inhibition of growth at 100 ppm was determined as 100% in data set [1]; 100% in data set [2]; 50% in [3]; 100% in [4]; 100% in data set [5]; 100% in data set [6]. Also, the inhibition of growth at 100 ppm in data set [7], in [8] and in data set [10] was 100% in each case.
